Laboratory results published in ChEMBL document CHEMBL1629492 (Eur J Med Chem, 2010).

Target: T1, Alpha-1D adrenergic receptor (Rattus norvegicus) (UniProt P23944)
T1 sequence (whole entry): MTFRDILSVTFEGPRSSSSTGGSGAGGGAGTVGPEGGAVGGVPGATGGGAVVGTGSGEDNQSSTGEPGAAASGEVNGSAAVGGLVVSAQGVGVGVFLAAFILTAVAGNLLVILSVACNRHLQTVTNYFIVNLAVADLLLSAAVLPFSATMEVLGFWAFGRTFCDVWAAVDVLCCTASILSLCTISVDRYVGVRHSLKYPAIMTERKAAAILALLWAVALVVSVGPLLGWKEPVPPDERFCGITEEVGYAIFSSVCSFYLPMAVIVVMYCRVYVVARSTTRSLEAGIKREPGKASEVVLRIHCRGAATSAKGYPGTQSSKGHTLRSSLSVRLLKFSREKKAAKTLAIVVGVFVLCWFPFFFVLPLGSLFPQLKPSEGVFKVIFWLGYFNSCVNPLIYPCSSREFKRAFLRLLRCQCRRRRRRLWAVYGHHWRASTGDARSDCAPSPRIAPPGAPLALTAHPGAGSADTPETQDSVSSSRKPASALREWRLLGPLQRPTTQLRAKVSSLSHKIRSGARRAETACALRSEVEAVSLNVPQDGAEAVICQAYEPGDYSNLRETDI
Details: Wistar, Thoracic aorta
Description: Antagonist activity at Alpha-1D adrenoceptor in Wistar rat thoracic aorta assessed as noradrenaline induced contractions after 30 mins

## COc1ccc(C[C@@H](C)NCCOc2ccccc2OCc2ccccc2)cc1S(N)(=O)=O
  pKb: 9.2
